Measured values taken from PubChem BioAssay AID1963422 (Molecular Pharmacology Branch, DTP, NCI, 2024).
pIC50: −log10 of the molar value. Each block holds one molecule with its values, some of them ahead of it.

System: 463943-066-T-J2-PDC complex spheroid growth
Experiment: Anticancer human tumor 463943-066-T-J2-PDC patient-derived colon adenocarcinoma cell line growth inhibition [Asc]
Settings: for pIC50: curve of first compound; for viability, T/C: stronger effect = lower value
Summary of the method: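 Concentration series start at each agent's clinical Cmax, or at 10 microM when none is established, and drop in half-log steps; agents are applied alone or together to complex spheroids built with HUVEC and hMSC.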

[1] = second compound 0.00316 µM, first compound 0.00316 µM
[2] = second compound 0.00316 µM, first compound 0.01 µM
[3] = second compound 0.00316 µM, first compound 0.0316 µM
[4] = second compound 0.00316 µM, first compound 0.1 µM
[5] = second compound 0.00316 µM, first compound 0.316 µM
[6] = second compound 0.00316 µM, first compound 1 µM
[7] = second compound 0.01 µM, first compound 0.00316 µM
[8] = second compound 0.01 µM, first compound 0.01 µM
[9] = second compound 0.01 µM, first compound 0.0316 µM
[10] = second compound 0.01 µM, first compound 0.1 µM
[11] = second compound 0.01 µM, first compound 0.316 µM
[12] = second compound 0.01 µM, first compound 1 µM
[13] = second compound 0.0316 µM, first compound 0.00316 µM
[14] = second compound 0.0316 µM, first compound 0.01 µM
[15] = second compound 0.0316 µM, first compound 0.0316 µM
[16] = second compound 0.0316 µM, first compound 0.1 µM
[17] = second compound 0.0316 µM, first compound 0.316 µM
[18] = second compound 0.0316 µM, first compound 1 µM
[19] = second compound 0.1 µM, first compound 0.00316 µM
[20] = second compound 0.1 µM, first compound 0.01 µM
[21] = second compound 0.1 µM, first compound 0.0316 µM
[22] = second compound 0.1 µM, first compound 0.1 µM
[23] = second compound 0.1 µM, first compound 0.316 µM
[24] = second compound 0.1 µM, first compound 1 µM
[25] = second compound 0.316 µM, first compound 0.00316 µM
[26] = second compound 0.316 µM, first compound 0.01 µM
[27] = second compound 0.316 µM, first compound 0.0316 µM
[28] = second compound 0.316 µM, first compound 0.1 µM
[29] = second compound 0.316 µM, first compound 0.316 µM
[30] = second compound 0.316 µM, first compound 1 µM
[31] = second compound 1 µM, first compound 0.00316 µM
[32] = second compound 1 µM, first compound 0.01 µM
[33] = second compound 1 µM, first compound 0.0316 µM
[34] = second compound 1 µM, first compound 0.1 µM
[35] = second compound 1 µM, first compound 0.316 µM
[36] = second compound 1 µM, first compound 1 µM
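Further: compound exposure lasted 7 days.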
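Wherever viability, T/C is given: 100% = DMSO vehicle control wells.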

pIC50 (second compound 0.00316 µM): < 6.00 | pIC50 (second compound 0.01 µM): < 6.00 | pIC50 (second compound 0.0316 µM): < 6.00 | pIC50 (second compound 0.1 µM): < 6.00 | pIC50 (second compound 0.316 µM): < 6.00 | pIC50 (second compound 1 µM): < 6.00
Structure (SMILES): CCN1CCN(Cc2ccc(Nc3ncc(F)c(-c4cc(F)c5nc(C)n(C(C)C)c5c4)n3)nc2)CC1 + CNC(C)C(=O)NC1CN(S(=O)(=O)c2cccc(S(=O)(=O)N3CCC4CCC(C(=O)NC(c5ccccc5)c5ccccc5)N4C(=O)C(NC(=O)C(C)NC)C3)c2)CCC2CCC(C(=O)NC(c3ccccc3)c3ccccc3)N2C1=O
viability, T/C [1]: 87.7% | viability, T/C [2]: 92.7% | viability, T/C [3]: 88% | viability, T/C [4]: 93.6% | viability, T/C [5]: 109% | viability, T/C [6]: 120% | viability, T/C [7]: 99.2% | viability, T/C [8]: 102% | viability, T/C [9]: 99.8% | viability, T/C [10]: 92.2% | viability, T/C [11]: 123% | viability, T/C [12]: 121% | viability, T/C [13]: 103% | viability, T/C [14]: 108% | viability, T/C [15]: 94.9% | viability, T/C [16]: 101% | viability, T/C [17]: 116% | viability, T/C [18]: 128% | viability, T/C [19]: 89% | viability, T/C [20]: 92.3% | viability, T/C [21]: 89.6% | viability, T/C [22]: 95.5% | viability, T/C [23]: 113% | viability, T/C [24]: 110% | viability, T/C [25]: 92.3% | viability, T/C [26]: 103% | viability, T/C [27]: 99.7% | viability, T/C [28]: 89.6% | viability, T/C [29]: 109% | viability, T/C [30]: 118% | viability, T/C [31]: 88.8% | viability, T/C [32]: 92.5% | viability, T/C [33]: 84% | viability, T/C [34]: 94% | viability, T/C [35]: 120% | viability, T/C [36]: 117%

pIC50 (second compound 0.00316 µM): < 6.52 | pIC50 (second compound 0.01 µM): < 6.52 | pIC50 (second compound 0.0316 µM): < 6.52 | pIC50 (second compound 0.1 µM): < 6.52 | pIC50 (second compound 0.316 µM): < 6.52 | pIC50 (second compound 1 µM): < 6.52
Structure (SMILES): NC(=O)C(=Cn1cnc(-c2cc(C(F)(F)F)cc(C(F)(F)F)c2)n1)c1cncnc1 + CNC(C)C(=O)NC1CN(S(=O)(=O)c2cccc(S(=O)(=O)N3CCC4CCC(C(=O)NC(c5ccccc5)c5ccccc5)N4C(=O)C(NC(=O)C(C)NC)C3)c2)CCC2CCC(C(=O)NC(c3ccccc3)c3ccccc3)N2C1=O
viability, T/C (second compound 0.00316 µM, first compound 0.000949 µM): 84.3% | viability, T/C (second compound 0.00316 µM, first compound 0.003 µM): 77.2% | viability, T/C (second compound 0.00316 µM, first compound 0.00949 µM): 77.4% | viability, T/C (second compound 0.00316 µM, first compound 0.03 µM): 78.7% | viability, T/C (second compound 0.00316 µM, first compound 0.0949 µM): 73.2% | viability, T/C (second compound 0.00316 µM, first compound 0.3 µM): 64.8% | viability, T/C (second compound 0.01 µM, first compound 0.000949 µM): 95.8% | viability, T/C (second compound 0.01 µM, first compound 0.003 µM): 87.6% | viability, T/C (second compound 0.01 µM, first compound 0.00949 µM): 80.8% | viability, T/C (second compound 0.01 µM, first compound 0.03 µM): 84.9% | viability, T/C (second compound 0.01 µM, first compound 0.0949 µM): 85.1% | viability, T/C (second compound 0.01 µM, first compound 0.3 µM): 65.3% | viability, T/C (second compound 0.0316 µM, first compound 0.000949 µM): 82.4% | viability, T/C (second compound 0.0316 µM, first compound 0.003 µM): 81.2% | viability, T/C (second compound 0.0316 µM, first compound 0.00949 µM): 80.4% | viability, T/C (second compound 0.0316 µM, first compound 0.03 µM): 88.3% | viability, T/C (second compound 0.0316 µM, first compound 0.0949 µM): 83.9% | viability, T/C (second compound 0.0316 µM, first compound 0.3 µM): 66.6% | viability, T/C (second compound 0.1 µM, first compound 0.000949 µM): 90.7% | viability, T/C (second compound 0.1 µM, first compound 0.003 µM): 82.6% | viability, T/C (second compound 0.1 µM, first compound 0.00949 µM): 82.5% | viability, T/C (second compound 0.1 µM, first compound 0.03 µM): 85% | viability, T/C (second compound 0.1 µM, first compound 0.0949 µM): 80.5% | viability, T/C (second compound 0.1 µM, first compound 0.3 µM): 67.3% | viability, T/C (second compound 0.316 µM, first compound 0.000949 µM): 85.2% | viability, T/C (second compound 0.316 µM, first compound 0.003 µM): 82.4% | viability, T/C (second compound 0.316 µM, first compound 0.00949 µM): 82.5% | viability, T/C (second compound 0.316 µM, first compound 0.03 µM): 78.9% | viability, T/C (second compound 0.316 µM, first compound 0.0949 µM): 80.3% | viability, T/C (second compound 0.316 µM, first compound 0.3 µM): 64.2% | viability, T/C (second compound 1 µM, first compound 0.000949 µM): 78.2% | viability, T/C (second compound 1 µM, first compound 0.003 µM): 91.9% | viability, T/C (second compound 1 µM, first compound 0.00949 µM): 78.5% | viability, T/C (second compound 1 µM, first compound 0.03 µM): 77.4% | viability, T/C (second compound 1 µM, first compound 0.0949 µM): 73.3% | viability, T/C (second compound 1 µM, first compound 0.3 µM): 58.5%

pIC50 (second compound 0.00316 µM): 6.90 | pIC50 (second compound 0.01 µM): 6.46 | pIC50 (second compound 0.0316 µM): 6.52 | pIC50 (second compound 0.1 µM): 6.76 | pIC50 (second compound 0.316 µM): 6.64 | pIC50 (second compound 1 µM): 6.62
Structure (SMILES): O=C(c1ccc(F)c(F)c1Nc1ccc(I)cc1F)N1CC(O)([C@@H]2CCCCN2)C1 + CNC(C)C(=O)NC1CN(S(=O)(=O)c2cccc(S(=O)(=O)N3CCC4CCC(C(=O)NC(c5ccccc5)c5ccccc5)N4C(=O)C(NC(=O)C(C)NC)C3)c2)CCC2CCC(C(=O)NC(c3ccccc3)c3ccccc3)N2C1=O
viability, T/C [1]: 88.3% | viability, T/C [2]: 76.9% | viability, T/C [3]: 59.4% | viability, T/C [4]: 58.4% | viability, T/C [5]: 40.4% | viability, T/C [6]: 20.8% | viability, T/C [7]: 94.6% | viability, T/C [8]: 88.3% | viability, T/C [9]: 71.8% | viability, T/C [10]: 65.9% | viability, T/C [11]: 51.3% | viability, T/C [12]: 36.9% | viability, T/C [13]: 102% | viability, T/C [14]: 81.6% | viability, T/C [15]: 69% | viability, T/C [16]: 67.2% | viability, T/C [17]: 55% | viability, T/C [18]: 32.6% | viability, T/C [19]: 85.1% | viability, T/C [20]: 82.9% | viability, T/C [21]: 64.4% | viability, T/C [22]: 56% | viability, T/C [23]: 46.8% | viability, T/C [24]: 24.7% | viability, T/C [25]: 91.1% | viability, T/C [26]: 79.2% | viability, T/C [27]: 66.5% | viability, T/C [28]: 60% | viability, T/C [29]: 49.9% | viability, T/C [30]: 31.8% | viability, T/C [31]: 82% | viability, T/C [32]: 68.1% | viability, T/C [33]: 66.3% | viability, T/C [34]: 61.4% | viability, T/C [35]: 47.4% | viability, T/C [36]: 33.4%
